Measured values from patent US20230077104A1, “L-SEPIAPTERIN AND METHODS OF USE FOR TREATING DISEASES AND DISORDERS” (THE UNITED STATES GOVERNMENT AS REPRESENTED BY THE …, priority 2020, published 2023).

Assays:
[1] = biological target: p38α (Homo sapiens, UniProt Q16539); conditions: cited from earlier work
[2] = tested on: HRGECs / neutrophils; test: Neutrophil adhesion to SLE serum-treated HRGECs, by dose of the patients' medication; type: cell-based, human; conditions: serum of SLE patients on differing doses
Description: HRGECs were cultured in 48 well fibronectin-coated plates at 80 000 cells per well in complete growth media until confluent. HRGECs were washed, serum starved for 1 hour in ECM supplemented with 0.5% FBS, washed again. Treatments consisting of ECM only, 2.5% serum (lupus or control) in ECM or 100 ng/mL TNF-alpha (Thermo Fisher Scientific) (positive control) in ECM were added to the HRGECs, and cells underwent incubation for 3 hours at 37° C. HRGECs were then washed three times with RPMI-1640 (without phenol red); 6×10^5 Calcein AM-labelled neutrophils were added to each well of the treated HRGECs. Cells were incubated for 20 min at 37° C. and washed five times with PBS (without Ca^2+/Mg^2+). Fluorescence intensity was quantified before the first wash and after the fifth wash to determine percent cell adherence, with all values then normalized to untreated controls. Fluorescence intensity was measured from the top of the plate at 485 nm excitation, 520 nm emission using a fluorescence microplate reader (Biotek HT Synergy).

[3] = tested on: HRGECs / neutrophils; test: Neutrophil migration to conditioned media of SLE serum-treated HRGECs, by dose of the patients' medication; type: cell-based, human; conditions: serum of SLE patients on differing doses
Description: HRGECs were plated at 4×10^4 cells per well of a 48-well fibronectin-coated plate in complete growth media at 37° C. with 5% CO2. On confluence, cells were washed three times in ECM. Cells were then cultured with 10% serum (SLE or control) in ECM for 3 hours and then washed three times in ECM. Cells were serum starved overnight in ECM. The resulting conditioned media (CM) was then collected and passed through a 0.2 μm pore membrane to remove any cellular debris and frozen at −80° C. for later use.
Transwell membrane chambers with 3 μm pores from a 96-well Migration Plate (Corning, Corning, N.Y., USA) were equilibrated in RPMI for 1 hour at 37° C. Then RPMI was removed. CM or negative (CM from serum-free treatment)/positive (10^−7 M interleukin (IL)-8 (R&D Systems, Minneapolis, Minn., USA)) controls were added to the 96-well black-walled receiver wells (Corning); 1.5×10^5 neutrophils in ECM were then added to the upper chamber of each insert and incubated for 1 hour to allow for neutrophil migration toward the conditioned medium. Cells that migrated through the membrane into the CM were then labelled with Calcein AM and incubated for 1 hour at 37° C. as described above. Fluorescence intensity was then measured from the bottom of the plate at 485 nm excitation, 520 nm emission using a fluorescence microplate reader (Biotek HT Synergy). A standard curve of Calcein AM-labelled neutrophils (using 1.5×10^5, 1.0×10^5, 5.0×10^4, 2.5×10^4, 1.25×10^4, 0.625×10^4 and 0 neutrophils) was created and fluorescence intensity was quantified on the microplate reader. The linear equation was then calculated and fluorescence intensity of samples could then be input into the linear equation to determine neutrophil cell number. The fluorescence intensity of migrated neutrophils in the lower chamber was measured as described (Jones Buie et al., Lupus Sci Med 2019; 6:e000294). All values were normalized to untreated controls.

[4] = tested on: p38α and p38β2; conditions: cited from earlier work
[5] = biological target: iNOS (Mus musculus, UniProt P29477); conditions: cited from earlier work
[6] = tested on: human umbilical vein endothelial cells (HUVECs); test: Measurement of nitric oxide production (DAF-FM fluorescence, flow cytometry) in serum-cultured HUVECs; type: cell-based; conditions: for DAF-FM MFI, a marker of NO production: L-sep 5 μM 6 hours
Description: Primary human umbilical vein endothelial cells from pooled donors were purchased from Lonza (Walkersville, Md., USA) and cultured according to the manufacturer's instructions in 5% CO2 at 37° C. in humidified air. Cells were cultured in endothelial cell basal medium-2 (EBM-2) supplemented with EBM-2 SingleQuot (Lonza), pH 7.6-8.0. Media was changed every other day until cells were 70%-80% confluent. HUVECs were sub-cultured using TryPLE Express, pH 8.0 (ThermoFisher Scientific, Waltham, Mass., USA). Cell growth was limited to 12 population doublings, and all experiments were carried out using cells between passages 3-5. For serum experiments, cells were cultured with 20%-50% serum for 6 or 24 hours prior to further analysis.
For real-time detection of NO production in HUVECs, 1.2×10^5 cells were seeded in a 12-well tissue culture plate. Following adherence, cells were serum starved for 6 hours in endothelial basal media (EBM) containing 0.2% fetal bovine serum (FBS). Cells were stimulated with either 50% healthy or SLE sera±L-sep (5 μM; 6 hours), the eNOS-specific inhibitor, Nω-Nitro-L-arginine (L-NNA, 10 μM; 30 min pre-incubation (Tocris; Bristol, UK)) or the NO donor 3,3′-diamino-4′-methoxyflavone (DD1, 10 μM, Tocris). Following stimulation, cells were washed twice with phosphate buffered saline (PBS) and loaded with 1 μM DAF-FM diacetate (4-amino-5-methylamino-2′,7′-difluorofluorescein diacetate, 1 μM) (ThermoFisher Scientific) in phenol red-free EBM for 30-45 min. […] A population of 2000-10 000 cells were gated to remove doublets and controls and analyzed based on their fluorescence intensities using a FACS Calibur flow cytometer (Becton Dickenson, San Diego, USA). The mean fluorescence intensity (MFI) was normalized to respective populations in unstimulated cells. In order to discriminate between NO and other gaseous molecules previously shown to augment DAF-FM fluorescence, a urate assay was performed to optimize the assay (data not shown).

[7] = tested on: human renal glomerular endothelial cells (HRGEC); test: NO production (DAF-FM with urate) by HRGEC treated with LN serum; type: cell-based; conditions: urate added, 5 μM L-Sepiapterin, 25 μM VAS2870
Description: The inflammatory phenotype of HUVECs differs from microvascular endothelial cells and may not reflect mechanisms in glomerular endothelial cells. To confirm the uncoupling effects lead to functional changes in uncoupling and NO production by EC treated with LN serum in HRGEC, HRGEC as in FIG. 10 was treated with LN serum in a black walled 96-well plate. […] NO production was quantified using DAF-FM fluorescence with urate added to prevent ONOO— fluorescence. […] While not wishing to be bound to any particular theory, one possible explanation for this finding is that uncoupled NOS is a significant source of ROS in LN (Njoku, C. J. et al., 2005, J. Investig. Med., 53:347-52).
HRGECs are plated at 3×10^4 cells per well in a 96-well black-walled plate and cultured in complete growth media at 37° C. in a humidified atmosphere with 5% CO2. Upon confluence, complete growth medium is removed, and cells washed in ECM-prf (phenol red free). Cells are incubated with 2 μM DAF-FM Diacetate for 60 minutes at 37° C., then cells washed in ECM-prf. […] 0.6 mM DPTA NONOate (Abcam) is a positive control, while L-NAME (100 μM) is a negative control. […] Plates are incubated for 30 minutes at 37° C. and read at 485/528 excitation/emission on a microplate reader (BioTek HT Synergy). […]

[8] = tested on: BALB/c mice with Angiotensin II minipumps; test: Systolic blood pressure in Angiotensin II minipump hypertension; type: in vivo
Description: Hypertension was created in some BALB/c mice with Angiotensin II minipumps. Mice were treated half with CSNA-001 (L-sep) 8 days after the pumps were placed and baseline SBP checked. The decrease in systolic BP was significant in the treated mice but not the untreated (FIG. 21 and FIG. 22).

[9] = tested on: intracellular BH4; conditions: compared with exogenous BH4 (Crabtree 2011); cited from earlier work
[10] = tested on: humans with phenylketonuria and tetrahydrobiopterin deficiencies; conditions: humans with phenylketonuria and tetrahydrobiopterin deficiencies (Smith 2019); cited from earlier work
[11] = tested on: HUVECs / neutrophils; test: Neutrophil adhesion assay on HUVECs; type: cell-based, human
Description: HUVECs were plated at 5.0×10^4 cells/mL in a 24-well plate (Costar) and allowed to adhere overnight. HUVECs were serum starved for 3 hours in phenol-red free 0.2% FBS EBM media (Lonza) prior to activation with 10% sera for 4 hours. Tumor necrosis factor-α (100 ng/mL) was used as the positive control. Neutrophils isolated from healthy human blood as outlined previously were labelled with Calcein AM (Life Technologies) at 5×10^5 cells/mL. Neutrophils were washed gently four times in warm serum-free EBM culture media prior to co-culturing with HUVECs for 60 min after which non-adherent cells were removed by repeated gentle washing (four times) with EBM culture media. Fluorescence intensity was measured at 520 nM with a FLUOStar Omega microplate reader (Cary, N.C., USA), and images were captured using confocal microscopy. Data are reported as ratios of the number of neutrophils to the number of endothelial cells as averages from three different visual fields.

[12] = tested on: C57B6/J mice with angiotensin II minipump; test: Tail cuff blood pressure response to acetylcholine, angiotensin II model of hypertension; type: in vivo; conditions: 10 mg/kg/d by gavage vs vehicle
Description: To determine the effect of sepiapterin in a mouse model of hypertension, C57B6/J mice were implanted with an angiotensin II minipump for 2 weeks to induce hypertension. The animals were then treated with either sepiapterin 10 mg/kg/d by gavage or vehicle. A tail cuff measure of blood pressure was taken followed by injection of acetylcholine and a second tail cuff measure of blood pressure.

[13] = tested on: TLR 7/9; conditions: cited from earlier work

Chain of iNOS (P29477 whole entry): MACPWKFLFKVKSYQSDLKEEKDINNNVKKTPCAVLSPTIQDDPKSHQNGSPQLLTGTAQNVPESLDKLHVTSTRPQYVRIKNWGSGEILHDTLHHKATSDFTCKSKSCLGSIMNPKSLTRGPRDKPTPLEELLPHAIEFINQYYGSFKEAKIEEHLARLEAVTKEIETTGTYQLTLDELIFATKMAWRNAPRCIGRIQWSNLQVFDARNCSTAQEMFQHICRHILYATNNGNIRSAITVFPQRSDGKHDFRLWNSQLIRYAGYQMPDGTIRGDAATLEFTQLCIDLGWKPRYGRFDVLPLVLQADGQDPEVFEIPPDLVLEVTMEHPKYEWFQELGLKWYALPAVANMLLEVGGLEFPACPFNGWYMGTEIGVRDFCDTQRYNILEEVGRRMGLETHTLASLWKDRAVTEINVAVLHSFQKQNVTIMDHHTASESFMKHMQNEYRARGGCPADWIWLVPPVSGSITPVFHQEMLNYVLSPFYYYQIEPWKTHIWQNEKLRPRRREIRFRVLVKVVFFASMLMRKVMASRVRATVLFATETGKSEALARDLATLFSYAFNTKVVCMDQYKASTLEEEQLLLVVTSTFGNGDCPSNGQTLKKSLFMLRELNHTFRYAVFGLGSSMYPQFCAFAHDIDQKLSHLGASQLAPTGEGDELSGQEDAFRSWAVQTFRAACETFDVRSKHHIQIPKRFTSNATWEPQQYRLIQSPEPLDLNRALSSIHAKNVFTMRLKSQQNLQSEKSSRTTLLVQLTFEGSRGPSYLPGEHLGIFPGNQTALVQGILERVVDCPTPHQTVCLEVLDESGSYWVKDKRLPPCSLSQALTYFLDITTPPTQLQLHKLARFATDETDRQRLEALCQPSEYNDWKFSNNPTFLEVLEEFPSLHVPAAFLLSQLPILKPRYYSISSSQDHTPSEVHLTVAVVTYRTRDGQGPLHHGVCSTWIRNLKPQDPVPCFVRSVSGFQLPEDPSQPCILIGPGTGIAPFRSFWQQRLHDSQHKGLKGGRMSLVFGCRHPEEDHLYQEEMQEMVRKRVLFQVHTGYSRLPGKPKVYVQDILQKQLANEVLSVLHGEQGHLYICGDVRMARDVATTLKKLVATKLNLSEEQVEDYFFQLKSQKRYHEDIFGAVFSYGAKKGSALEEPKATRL
Chain of p38α (Q16539 whole entry): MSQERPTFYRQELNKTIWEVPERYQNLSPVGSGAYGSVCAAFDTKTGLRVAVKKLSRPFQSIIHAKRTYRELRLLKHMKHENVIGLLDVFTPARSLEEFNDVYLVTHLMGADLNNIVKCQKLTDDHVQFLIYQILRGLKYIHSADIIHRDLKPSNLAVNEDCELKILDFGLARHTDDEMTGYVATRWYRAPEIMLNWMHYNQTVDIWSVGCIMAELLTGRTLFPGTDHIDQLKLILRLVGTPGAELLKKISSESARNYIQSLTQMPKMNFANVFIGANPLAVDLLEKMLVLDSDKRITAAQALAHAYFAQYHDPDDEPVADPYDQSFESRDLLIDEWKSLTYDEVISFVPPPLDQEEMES

In the case of `Cc1c(F)cc(C(=O)NC2CC2)cc1-c1c(F)cn2c(C(C)(C)C)nnc2c1F` [AL 8697], the IC50 [1] is listed as 6 nM.

For `COc1c(C)c2c(c(O)c1C/C=C(\C)CCC(=O)OCCN1CCOCC1)C(=O)OC2` [CellCept, mycophenolate mofetil], the “neutrophil adhesion, dosing effects of medication” value [2] was “No difference” and the “neutrophil migration, dosing effects of medication” value (“neutrophil migration” below) [3] was “No difference”.

In the case of `Cc1ccccc1C(=O)c1ccc(Nc2ccc(Br)cc2N)cc1Cl` [EO1428], the IC50 [4] is given as 74 nM.

In the case of `CC(=N)NCCCC[C@H](N)C(=O)O` [L-NIL], the IC50 [5] is listed as 3300 nM.

In the case of `CC(O)C(=O)C1=Nc2c([nH]c(N)nc2=O)NC1` [L-sepiapterin, 2-amino-6-[-2-hydroxypropanoyl]-7,8-dihydro-1H-pteridin-4-one], the “DAF-FM MFI, a marker of NO production” value ([6]; SLE serum cultured HUVECs, 50% serum, vs SLE cultured cells without L-sepiapterin, p<0.01) is reported as “significantly increased”, the “DAF-FM MFI, a marker of NO production” value ([6]; control serum cultured HUVECs) is reported as “not observed” and the “ratio in MFI-fold change between SLE serum+L-sepiapterin and SLE serum” value ([6]; vs ratios in control and healthy serum culture conditions, p<0.001 and <0.01) is reported as “significantly different”. For the same molecule, the “NO production (DAF-FM fluorescence)” value [7] was “increased more”, the “decrease in systolic BP” value ([8]; treated mice, 20 mg/kg daily, Day 7 to Day 14, cuff pressure) was “significant” and the “mean blood pressure responses to acetyl choline” value ([8]; treated vs untreated mice) was “significant differences”. The “differences in reduction of systolic blood pressure” value ([8]; treated vs untreated mice, 20 mg/kg daily) was “about 8 mmHg”, the “intracellular BH4 levels” value [9] was “more effectively than exogenous BH4” and the safety profile [10] was “favorable”. For the same molecule, the “neutrophil adhesion induced by SLE serum” value ([11]; SLE serum cultured HUVECs) was “did not reverse neutrophil adhesion”, the neutrophil adhesion ([11]; cells cultured in EBM-2 media, p<0.05) was “reversed neutrophil adhesion” and the “endothelial function (difference in tail cuff pressure after acetylcholine)” value [12] was “improves endothelial function”.

In the case of `NCCCC[C@H](N[C@@H](CCc1ccccc1)C(=O)O)C(=O)N1CCC[C@H]1C(=O)O` [Lisinopril], the “neutrophil adhesion, dosing effects of medication” value [2] is reported as “No difference” and the “neutrophil migration” value [3] is reported as “No difference”.

For `C[C@]12C=CC(=O)C=C1CC[C@@H]1[C@@H]2C(=O)C[C@@]2(C)[C@H]1CC[C@]2(O)C(=O)CO` [Prednisone, prednisone], the “neutrophil adhesion, dosing effects of medication” value [2] was “No difference” and the “neutrophil migration” value [3] was “No difference”.

With `c1ccc(Cn2nnc3c(Sc4nc5ccccc5o4)ncnc32)cc1` [VAS2870, reference compound] the “NO production (DAF-FM fluorescence)” value [7] was “not effective”.

For `CCN(CCO)CCCC(C)Nc1ccnc2cc(Cl)ccc12` (stereo not shown) [hydroxychloroquine], the “neutrophil adhesion, dosing effects of medication” value [2] is given as “No difference”, the IC50 [13] is given as about 4000 nM and the “neutrophil migration” value [3] is given as “No difference”.
